For assay [1], the system named is proteasome. The settings on record: GFP-MODC fragment fusion; at 20 hours; flow cytometry; cited from earlier work. On the technique in general: A flow cytometer gives signals particle by particle.
Assay [2] has as its system proteasome. The settings on record: GFP-CL1 fusion; flow cytometry; cited from earlier work.
Assay [3] has as its system proteasome. In words: Inventive proteasome sensor sensitivity (detection of proteasome inhibitors). The settings on record: six hour after treatment as benchmark; broadest stated range. Format: cell-based.
Source text: In determining sensitivity of his system, in the present application six hour after treating a cell with a proteasome modifying treatment is employed as a benchmark for sensitivity.
Assay [4] has as its system proteasome. The settings on record: GFP-Ubiquitin fusion; at 15 hours; flow cytometry (FACS); cited from earlier work.
Assay [5] has as its system proteasome. In words: Stable HEK 293 clone expressing ZsGreend410, fluorescence with or without ALLN. Format: cell-based.
Assay [6] has as its system proteasome. Kind of assay: HEK 293 cells transiently transfected with ZsGreen constructs, MFI by flow cytometry. In kind it is cell-based. The settings on record: HEK 293, transient transfection. Here is the method:
(FIGS. 2A&B) To establish if the above proteins are substrate for degradation by the proteasome, HEK 293 cells were transiently transfected with the plasmids and the mean fluorescence intensity (MFI) of the cells was measured by flow cytometry 16 hours after transfection. […] To distinguish between these two possibilities, the transiently transfected cells were treated with ALLN, a well-characterized reversible inhibitor of proteasomal degradation.

Each structure is given as a SMILES string. Read-outs that look alike come from different tables or passages of the source. Square brackets hold non-standard residues; d marks the D form. Peptide text beside a SMILES is read from it. * marks the point of attachment. Nle = CCCC[C@H](N)C(=O)O; Cbz = O=C(OCc1ccccc1)*

This is an account of results in patent US7258981B2, “Sensitive proteasome sensor constructs and methods for their design and use” (Clontech Laboratories, Inc., priority 2003, dated 2007).

For the compound `CC(C)C[C@@H](C=O)NC(=O)[C@H](CC(C)C)NC(=O)[C@H](CC(C)C)NC(=O)OCc1ccccc1` [MG132] (Cbz-Leu-Leu-Leu-aldehyde), the “sensitivity achieved (inhibitor concentration)” value in the assay on proteasome [1] is 2.5 µM.

For the compound `CC(=O)N[C@@H](CSC(=O)[C@]1([C@@H](O)C(C)C)NC(=O)[C@H](C)[C@@H]1O)C(=O)O` [Lactacystin], the entries for the “sensitivity achieved (inhibitor concentration)” value in the assay with proteasome [1] and with proteasome [2] were 2.5 µM and 845 nM, respectively. Besides, the “detection level of inhibitor by the inventive sensor” value (“detection level of inhibitor” below) in the assay with proteasome [3] is 10 to 500 nM.

`CC[C@H](C)[C@H](NC(=O)[C@H]([C@@H](C)CC)N(C)C(C)=O)C(=O)N[C@H](C(=O)N[C@@H](CC(C)C)C(=O)[C@@]1(C)CO1)[C@@H](C)O` [Epoxomycin]: in the assay with proteasome [3], the “detection level of inhibitor” value is 1 to 30 nM.

Take `CC(C)C[C@@H](/C=C/S(C)(=O)=O)NC(=O)[C@H](CC(C)C)NC(=O)[C@H](CC(C)C)NC(=O)OCc1ccccc1` [Z-L3-VS]: the “sensitivity achieved (inhibitor concentration)” value in the assay on proteasome [4] is 4 µM.

As to `CCCC[C@@H](C=O)NC(=O)[C@H](CC(C)C)NC(=O)[C@H](CC(C)C)NC(C)=O` [ALLN] (Ac-Leu-Leu-[Nle]-aldehyde), the “delay before the appearance of fluorescence” value with proteasome [5] (ZsGreend410-expressing clone, stable transfection) came to 3 h. Also, the “effect of treatment on fluorescence of cells stably expressing ZsGreend410” value with proteasome [5] (stable HEK 293 clone) was “sharply increases”. Moreover, in the assay on proteasome [6], the “effect of treatment on fluorescence of ZsGreen expressing cells” value was “only marginally increases”; the “effect of treatment on fluorescence of pZsGreendl and pZsGreend410-transfected cells” value was “increased in a time-dependent fashion”. Also, the “detection level of inhibitor” value with proteasome [3] lay in the range of 50 to 2500 nM.
